One data set has as its target T1, Bcl-2/iso1 (Homo sapiens, UniProt P10415, DEL35-91/INS34DVEENRTEAPEGTESE/R110G/T96A).
T1 construct: His tag (pET28b, thrombin-cleavable) (N, cleaved yes); made in house; host or cells: E. coli BL21(DE3)
The data set is described as follows: Fluorescence polarization titration of fluoresceinated probe peptides with Bcl-2/iso1. It counts as binding. As to the method: (3) (FITC)-AAQRYGRELRRMSDEFVR(SEQ ID NO:19). The dissociation constants of these fluoresceinated peptides from Bcl-2/iso1 are ˜20 nM, ˜50 nM, and ˜100 nM, respectively.
All titrations were automated by means of an Abbott clinical diagnostics instrument (IMx, FPIA mode) modified with a special protocol for performing titrations. A complete two-fold dilution series, comprised of twenty separate 2 mL samples, was obtained by delivering appropriate individual aliquots to the first seven tubes, aliquots from an intermediate diluted stock for the next seven, and one more intermediate dilution for the final six. […] The concentrations of the DMSO stock solutions of the peptide were 1–4 mM as determined by Trp absorbance (O.D. 280 nm), Tyr absorbance (O.D. 293), or amino acid analysis. […] Twenty 1.8 uL samples were prepared without fluoresceinatedpeptide and read as blanks. To each tube, 0.2 uL of a Bcl-2, fluoresceinatedpeptide mixture was added; the tubes were incubated for 5 min at 35° C., and then read for total intensity and polarization. […]
Steady state polarization data can be analyzed to extract the fractions of bound and free fluorescent ligand owing to the linear additivity of their anisotropy values, weighted by their respective fractional intensities (Lakowicz, JR. Principles of Fluorescence Spectroscopy. New York, N.Y.: Plenum Press (1983)). […]
In general terms: Fluorescence polarisation rises when a labelled molecule tumbles more slowly, as on binding a larger partner.

Data set [1] is described as follows: Isoelectric point of Bcl-2 / Bcl-xL proteins. In kind it is physicochemical, human. The settings on record: pH at which the protein carries no net charge. An excerpt:
As used herein, the term “isoelectric point” (or pI) refers to the pH at which the protein carries no net charge. The isoelectric points of Bcl-2/iso1, Bcl-2/iso2, and Bcl-2/iso3 are about 7.0, 7.2 and 7.2, respectively. The mutant proteins of the present invention have an isoelectric point lower than that of wild-type Bcl-2 and preferably, in the range of 4.5 to about 6.0. More preferably, the isoelectric point of a mutant protein of the invention is from 4.5 to about 5.5. A more preferred isoelectric point is from about 5.0 to about 5.5. A most preferred isoelectric point is 5.0. Means for determining the isoelectric point of a protein are well known to those of ordinary skill in the art.

Residues, ends and D or L forms follow the SMILES beside them. *: point of attachment. 5FAM = O=C1OC2(c3ccc(O)cc3Oc3cc(O)ccc32)c2ccc(C(=O)*)cc21

The term Kd denotes the concentration at which binding is half-saturated. Read a low Kd as tighter binding.

T1 sequence (P10415 with tags, fused parts or gaps with the stated changes): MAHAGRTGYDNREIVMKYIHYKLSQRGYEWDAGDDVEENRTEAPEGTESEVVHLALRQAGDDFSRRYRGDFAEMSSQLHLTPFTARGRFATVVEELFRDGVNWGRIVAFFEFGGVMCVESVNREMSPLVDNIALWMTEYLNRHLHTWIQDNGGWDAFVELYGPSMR

In the case of `CSCC[C@H](NC(=O)[C@H](CCCNC(=N)N)NC(=O)[C@H](CCCNC(=N)N)NC(=O)[C@H](CC(C)C)NC(=O)[C@H](CCC(=O)O)NC(=O)[C@H](CCCNC(=N)N)NC(=O)CNC(=O)[C@H](Cc1ccc(O)cc1)NC(=O)[C@H](CCCNC(=N)N)NC(=O)[C@H](CCC(N)=O)NC(=O)[C@H](C)NC(=O)[C@H](C)NC(=O)[C@H](C)NC(=O)[C@H](C)NC(=O)[C@H](C)NC(=O)c1ccc2c(c1)C(=O)OC21c2ccc(O)cc2Oc2cc(O)ccc21)C(=O)N[C@@H](CO)C(=O)N[C@@H](CC(=O)O)C(=O)N[C@@H](CCC(=O)O)C(=O)N[C@@H](Cc1ccccc1)C(=O)N[C@H](C(=O)N[C@@H](CC(=O)O)C(=O)N[C@@H](CO)C(=O)N[C@@H](Cc1ccccc1)C(=O)N[C@@H](CCCCN)C(=O)N[C@@H](CCCCN)C(=O)O)C(C)C` (5FAM-AAAAAQRYGRELRRMSDEFVDSFKK-OH), the equilibrium dissociation constant (Kd) on Bcl-2/iso1 was about 20 nM.

For the compound “Bcl-2/iso2: wild-type human Bcl-2 protein isoform 2 (SEQ ID NO:4)”, the isoelectric point in data set [1] is about 7.2.

As for `CSCC[C@H](NC(=O)[C@H](CCCNC(=N)N)NC(=O)[C@H](CCCNC(=N)N)NC(=O)[C@H](CC(C)C)NC(=O)[C@H](CCC(=O)O)NC(=O)[C@H](CCCNC(=N)N)NC(=O)CNC(=O)[C@H](Cc1ccc(O)cc1)NC(=O)[C@H](CCCNC(=N)N)NC(=O)[C@H](CCC(N)=O)NC(=O)[C@H](C)NC(=O)[C@H](C)NC(=O)[C@H](C)NC(=O)[C@H](C)NC(=O)[C@H](C)NC(=O)c1ccc2c(c1)C(=O)OC21c2ccc(O)cc2Oc2cc(O)ccc21)C(=O)N[C@@H](CO)C(=O)N[C@@H](CC(=O)O)C(=O)N[C@@H](CCC(=O)O)C(=O)N[C@@H](Cc1ccccc1)C(=O)N[C@H](C(=O)N[C@@H](CC(=O)O)C(=O)N[C@@H](CO)C(=O)N[C@@H](CCCCN)C(=O)N[C@@H](CCCCN)C(=O)O)C(C)C` (5FAM-AAAAAQRYGRELRRMSDEFVDSKK-OH; C-terminus assumed), on Bcl-2/iso1, the equilibrium dissociation constant (Kd) is about 50 nM.
